Data reported in ChEMBL document CHEMBL3045799, “Effect of Candidatus Liberibacter asiaticus infection on susceptibility of Asian citrus psyllid, Diaphorina citri, to selected insecticides” (2011).

Tests used:
Type in all cases: functional
Diaphorina citri [1] = test: Insecticidal activity against Diaphorina citri assessed as mortality after 48 hr
Diaphorina citri [2] = test: Selectivity ratio of LC50 for Diaphorina citri to LC50 for Diaphorina citri infected with Candidatus Liberibacter asiaticus
Diaphorina citri [3] = test: Insecticidal activity against Diaphorina citri infected with Candidatus Liberibacter asiaticus assessed as mortality after 48 hr

Work on CCOP(=S)(OCC)Oc1nc(Cl)c(Cl)cc1Cl [CHLORPYRIFOS] yielded an LC50 (Diaphorina citri [1]) of 0.78 mgAi/L, a RatioLC50 (Diaphorina citri [2]) of 2.8 and an LC50 (Diaphorina citri [3]) of 0.28 mgAi/L.
With CCO[C@@H]1[C@@H](OC)[C@H](C)O[C@@H](O[C@@H]2C[C@H]3CC[C@@H]4[C@@H](C=C5C(=O)[C@H](C)[C@@H](O[C@H]6CC[C@H](N(C)C)[C@@H](C)O6)CCC[C@H](CC)OC(=O)C[C@H]54)[C@@H]3C2)[C@@H]1OC.CCO[C@@H]1[C@@H](OC)[C@H](C)O[C@@H](O[C@H]2C[C@H]3[C@@H]4C=C5C(=O)[C@H](C)[C@@H](O[C@H]6CC[C@H](N(C)C)[C@@H](C)O6)CCC[C@H](CC)OC(=O)C[C@H]5[C@@H]4C=C(C)[C@@H]3C2)[C@@H]1OC the LC50 (Diaphorina citri [1]) was 0.48 mgAi/L, the RatioLC50 (Diaphorina citri [2]) was 1.2 and the LC50 (Diaphorina citri [3]) was 0.2 mgAi/L.
CC1(C)C(C(=O)OC(C#N)c2cccc(Oc3ccccc3)c2)C1(C)C (configuration not stated) [FENPROPATHRIN] gave an LC50 (Diaphorina citri [1]) of 0.06 mgAi/L, a RatioLC50 (Diaphorina citri [2]) of 1.2 and an LC50 (Diaphorina citri [3]) of 0.05 mgAi/L.
O=[N+]([O-])/N=C1\NCCN1Cc1ccc(Cl)nc1 [IMIDACLOPRID] was tested, and the LC50 (Diaphorina citri [1]) was 0.47 mgAi/L, the RatioLC50 (Diaphorina citri [2]) was 3.1 and the LC50 (Diaphorina citri [3]) was 0.15 mgAi/L.
